# Reference: patent US10828326B2, “Compositions and methods for treating and preventing venom related poisoning” (priority 2015, dated 2020)
# Test system: Crotalus atrox venom-enhanced tissue-type plasminogen activator initiated fibrinolysis
# Test: Thrombelastography of human plasma pretreated with iron and/or CO before venom exposure in the presence of tPA (Example II)
# Format: biochemical
# Details: 100 IU/ml tPA, vs matched samples without or with venom exposure (0.5 μg/ml)
# Procedure: Two hundred mg of lyophilized, pooled venom was obtained from four western diamondback rattlesnakes (Crotalus atrox) for experimentation. Venom was reconstituted in calcium-free phosphate buffered saline (PBS, Sigma-Aldrich, Saint Louis, Mo., USA) at a concentration of 20 mg/ml, aliquoted, and then stored at −80° C. until experimentation at the University of Arizona.
# Pooled normal plasma (George King Bio-Medical, Overland Park, Kans., USA) anticoagulated with sodium citrate was rapidly thawed at 37° C. and used for experimentation. To assess the effects of pretreatment of antifibrinolytic plasma proteins with iron, CO, or both, 1% additions of PBS, ferric chloride (FeCl3, 99.9% pure, Sigma-Aldrich, Saint Louis, Mo., USA) in PBS, or CORM-2 (tricarbonyldichlororuthenium (II) dimer, a CO releasing molecule, Sigma-Aldrich, Saint Louis, Mo., USA) dissolved in dimethyl sulfoxide (DMSO, Sigma-Aldrich, Saint Louis, Mo., USA) were used. […] Plasma was exposed to these various agents for at least 5 min prior to incubations with venom.
# The final volume for all subsequently described plasma sample mixtures was 359.4 μl. Sample composition consisted of […] of plasma; 10 μl of tissue factor reagent (0.1% final concentration in distilled water; Diagnostica Stago S.A.S., Asnieres sur Seine, France), 10 μl of tissue type plasminogen activator (tPA, 580 IU/μg, Genentech, Inc., San Francisco, Calif., USA; 100 IU/ml final concentration) and 3.4 μl of PBS or venom (final concentration 0.5-2.0 μg/ml). […] The aforementioned plasma and venom mixtures were placed in a disposable cup in a computer-controlled Thrombelastograph® hemostasis system (Model 5000, Haemoscope Corp., Niles, Ill., USA) and incubated for 5 min at 37° C., with addition of 20 μl of 200 mM CaCl2) as the last step to initiate clotting. Data were collected at 37° C. until clot lysis time (CLT) was observed. The following elastic modulus-based parameters previously described (see, Nielsen V G, Pretorius E. Blood Coagul Fibrinolysis 2014; 25:695-702) were determined: time to maximum rate of thrombus generation (TMRTG): this is the time interval (min) observed prior to maximum speed of clot growth; maximum rate of thrombus generation (MRTG): this is the maximum velocity of clot growth observed (dynes/cm^2/sec); total thrombus generation (TTG, dynes/cm^2), the final viscoelastic resistance observed after clot formation; time to maximum rate of lysis (TMRL, min), maximum rate of lysis (MRL, dynes/cm^2/sec) and CLT (min). Lastly, to assess if venom had thrombolytic properties that were tPA independent, n=4 replicates were performed wherein no tPA was added and data were collected for 3 h.
# Data are presented as mean±SD. All conditions unless otherwise indicated were represented by n=8 replicates. This number of replicates reliably provides a statistical power>0.8 for P<0.05 (see, Nielsen V G, Pretorius E. Blood Coagul Fibrinolysis 2014; 25:695-702). A commercially available statistical program was used for two-way analysis of variance (ANOVA) to assess interactions of venom and tPA on coagulation kinetics and interactions of iron and CO on venom-enhanced fibrinolysis (SigmaStat 3.1, Systat Software, Inc., San Jose, Calif., USA). Additional one-way ANOVA followed by Holm-Sidak post hoc analyses were performed to assess differences between the conditions. Graphics depicting viscoelastic data were generated with a commercially available program (OrigenPro 7.5, OrigenLab Corporation, Northampton, Mass., USA).
# [1] = 10 μM ferric chloride or 100 μM CORM-2
smiles,measurement,setting,value
"[Cl][Fe]([Cl])[Cl] [iron, ferric chloride]",clot lysis time (CLT),[1],significantly greater
same,maximum rate of thrombus generation (MRTG),[1],greater
same,time to maximum rate of lysis (TMRL),[1],significantly greater
same,total thrombus generation (TTG),[1],greater
same,maximum rate of lysis (MRL),10 μM ferric chloride,significantly greater
same,time to maximum rate of thrombus generation (TMRTG),10 μM ferric chloride,significantly lesser
